Here are results for 12 compounds from US11203594B2, “Anti-proliferative agents for treating PAH” (Pfizer Inc., priority 2019, dated 2021).

What all share (type): biochemical
Assay [1] addresses CDK6/Cyclin D1 (Homo sapiens (Human), UniProt Q00534). The assay is described as follows: CDK6/Cyclin D1 Mobility Shift Assay (MSA), Ki by Morrison equation. The settings on record: geometric mean, tested in CDK6/D1 Ki assay using MSA. An excerpt: CDK6/Cyclin D1 Mobility Shift Assay (MSA)
The purpose of the CDK6/Cyclin D1 assay is to evaluate the inhibition (% inhibition, Kiapp and Ki values) in the presence of small molecule inhibitors by using a fluorescence based microfluidic mobility shift assay. CDK6/Cyclin D1 catalyzes the production of ADP from ATP that accompanies the phosphoryl transfer to the substrate peptide 5-FAM-Dyrktide The mobility shift assay electrophoretically separates the fluorescently labeled peptides (substrate and phosphorylated product) following the kinase reaction. Both substrate and product are measured and the ratio of these values is used to generate % conversion of substrate to product by the LabChip EZ Reader. Typical reaction solutions contained 2% DMSO (±inhibitor), 2% glycerol, 10 mM MgCl2, 1 mM DTT, 3.5 mM ATP, 0.005% Tween 20 (TW-20), 3 μM 5-FAM-Dyrktide, 4 nM activated CDK6/Cyclin D1 in 40 mM HEPES buffer at pH 7.5. […]
For all the CDK4 and CDK6 assays the Ki constant for compounds were calculated for each enzyme using the Morrison equation. Fractional activity was measured at different compound concentrations, [I] and the data fit to the Morrison equation where [E] is the enzyme concentration, [S] is the ATP concentration, and Kn^App is the apparent Km for ATP for each enzyme under each assay format. […]

The target of assay [2] is CDK4/Cyclin D1 (Homo sapiens (Human), UniProt P11802). As to the kind of experiment: CDK4/Cyclin D1 CHEF assay (Chelation-Enhanced Fluorescence), Ki by Morrison equation. Conditions: geometric mean; tested in CHEF Assay; read-out: CDK4/Cyclin D1 GMean Ki. An excerpt: (§1) In Vitro Purified Enzyme Assays to Determine Potency for CDKs
CDK4/Cyclin D1, sequence (P11802 whole entry): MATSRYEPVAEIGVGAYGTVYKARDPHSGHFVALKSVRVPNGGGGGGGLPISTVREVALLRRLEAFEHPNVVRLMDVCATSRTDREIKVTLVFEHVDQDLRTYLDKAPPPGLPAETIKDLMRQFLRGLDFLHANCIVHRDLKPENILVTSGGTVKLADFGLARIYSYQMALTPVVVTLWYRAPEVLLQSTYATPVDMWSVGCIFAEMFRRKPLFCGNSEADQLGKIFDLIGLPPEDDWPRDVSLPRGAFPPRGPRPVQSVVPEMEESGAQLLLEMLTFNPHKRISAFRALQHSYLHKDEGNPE
CDK4/Cyclin D1, sequence (P24385 whole entry partner): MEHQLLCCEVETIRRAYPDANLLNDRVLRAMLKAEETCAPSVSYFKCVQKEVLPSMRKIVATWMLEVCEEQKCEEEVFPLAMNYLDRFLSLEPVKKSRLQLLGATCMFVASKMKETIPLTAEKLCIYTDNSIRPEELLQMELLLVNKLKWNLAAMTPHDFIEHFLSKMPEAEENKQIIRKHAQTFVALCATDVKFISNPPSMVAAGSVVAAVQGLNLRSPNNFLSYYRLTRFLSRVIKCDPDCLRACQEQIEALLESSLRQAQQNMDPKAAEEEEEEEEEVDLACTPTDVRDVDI
(§2) CDK4/Cyclin D1 and CDK6/Cylcin D3 CHEF Assay
(§3) The Chelation-Enhanced Fluorescence (CHEF) monitors the phosphorylation state in real time where the level of fluorescence is directly proportional to the amount of phosphorylated substrate. CHEF exploits a synthetic α-amino acid with a side chain bearing an 8-hydroxyquinoline derivative (sulfonamido-oxine, Sox) which, upon coordination to Mg(II), relays information on the phosphorylation state of a proximal serine, threonine or tyrosine residue in peptide-based kinase substrates. Phosphorylation of a specific peptide (Catalog # AQT0258) from AssayQuant Technologies results in an increase in fluorescence at the excitation and emission wavelengths of 360 nm Ex/485 nm Em.
(§4) Examples along with DMSO (negative) and Palbociclib (positive) controls were added to 384-well plates at 100-fold their final concentrations followed by the addition of 10 nM CDK4/Cyclin D1 (LJIC-2007F1) or 10 nM CDK6/Cyclin D3 (LJIC-2009H2) for a 20 minute pre-incubation in assay buffer containing 40 mM HEPES, 1 mM Dithiothreito (DTT, 10 mM MgCl2, 1% Glycerol, 0.1% BSA. Enzyme reactions were initiated by the addition of AssayQuant Technologies peptide and ATP substrates (10 μM CHEF peptide (Catalog # AQT0258), 2 mM ATP) and allowed to proceed for 2 hours followed by fluorescence read of the reaction. Ki determinations were made from a plot of the fractional velocity as a function of inhibitor concentration fit to the Morrison equation with the enzyme concentration as a variable.
(§5) For all the CDK4 and CDK6 assays the Ki constant for compounds were calculated for each enzyme using the Morrison equation. Fractional activity was measured at different compound concentrations, [I] and the data fit to the Morrison equation where [E] is the enzyme concentration, [S] is the ATP concentration, and Kn^App is the apparent Km for ATP for each enzyme under each assay format. With the Ki calculations dependent on the assay conditions for each assay format the resulting Ki becomes assay independent with a strong one to one correlation of Ki values for compounds tested in both assay formats.
(§6) In Table 2, assay data are presented to two (2) significant figures as the geometric mean (Ki) based on the number of replicates listed (Number). A cell having NA means there was no data for that Example in the indicated assay.

Assay [3] has as its target CDK6/Cyclin D3 (Homo sapiens (Human), UniProt Q00534). As to the kind of experiment: CDK6/Cyclin D3 CHEF assay (Chelation-Enhanced Fluorescence), Ki by Morrison equation. Conditions: geometric mean; tested in CHEF Assay; read-out: CDK6/Cyclin D3: GMean Ki.
Source text: as §1, §2, §3, §4, §5, §6

CDK6/Cyclin D3, sequence (Q00534 whole entry): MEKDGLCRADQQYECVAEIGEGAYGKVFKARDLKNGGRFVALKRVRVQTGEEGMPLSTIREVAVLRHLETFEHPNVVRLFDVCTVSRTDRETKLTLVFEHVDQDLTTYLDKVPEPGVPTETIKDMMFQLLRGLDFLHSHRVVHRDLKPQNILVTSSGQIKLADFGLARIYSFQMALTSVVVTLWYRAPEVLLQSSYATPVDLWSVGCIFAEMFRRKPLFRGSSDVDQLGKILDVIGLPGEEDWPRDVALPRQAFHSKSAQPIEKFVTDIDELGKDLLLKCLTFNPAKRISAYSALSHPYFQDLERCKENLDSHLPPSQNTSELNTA
CDK6/Cyclin D3, sequence (P30281 whole entry partner): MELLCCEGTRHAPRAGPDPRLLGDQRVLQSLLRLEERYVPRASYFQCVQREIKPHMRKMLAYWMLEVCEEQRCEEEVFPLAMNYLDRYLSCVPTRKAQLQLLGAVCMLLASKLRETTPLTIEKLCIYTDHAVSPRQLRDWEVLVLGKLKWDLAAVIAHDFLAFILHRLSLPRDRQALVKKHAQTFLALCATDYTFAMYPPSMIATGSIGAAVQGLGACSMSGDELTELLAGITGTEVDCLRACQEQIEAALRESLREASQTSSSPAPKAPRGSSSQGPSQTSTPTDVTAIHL
CDK6/Cyclin D1, sequence (Q00534 whole entry): as the sequence (Q00534 whole entry) above
CDK6/Cyclin D1, sequence (P24385 whole entry partner): as the sequence (P24385 whole entry partner) above

As to `CC(=O)c1c(C)c2cnc(N[C@@H]3CCOC[C@H]3O)nc2n([C@H]2CCC[C@]2(C)F)c1=O` (single isomer, unassigned) [Example 22], the Ki in assay [1] (read-out: CDK6/Cyclin D3: GMean Ki (nM) (footnote c: CDK6/D1 Ki)) stood at 2.8 nM.

In the case of `CC(=O)c1c(C)c2cnc(N[C@@H]3CCOC[C@H]3O)nc2n([C@@H]2CCC[C@]2(C)F)c1=O` (mixture of isomers) [Example 17, 6-Acetyl-8-[(1R,2S)-2-fluoro-2-methylcyclopentyl]-2-{[(3S,4R)-3-hydroxytetrahydro-2H-pyran-4-yl]amino}-5-methylpyrido[2,3-d]pyrimidin-7(8H)-one and 6-Acetyl-8-[(1S,2R)-2-fluoro-2-methylcyclopentyl]-2-{[(3S,4R)-3-hydroxytetrahydro-2H-pyran-4-yl]amino}-5-methylpyrido[2,3-d]pyrimidin-7(8H)-one], the “CDK6/Cyclin D3: GMean Ki (nM) (footnote c: CDK6/D1 Ki)” value in assay [1] is given as 10.5^c nM.

Regarding `CC(=O)c1c(C)c2cnc(N[C@@H]3CCOC[C@H]3O)nc2n([C@@H]2CC[C@@H]3C[C@@H]32)c1=O` (mixture of isomers) [Example 13, 6-Acetyl-8-[(1S,2R,5R)-bicyclo[3.1.0]hexan-2-yl]-2-{[(3S,4R)-3-hydroxytetrahydro-2H-pyran-4-yl]amino}-5-methylpyrido[2,3-d]pyrimidin-7(8H)-one and 6-Acetyl-8-[(1R,2S,5S)-bicyclo[3.1.0]hexan-2-yl]-2-{[(3S,4R)-3-hydroxytetrahydro-2H-pyran-4-yl]amino}-5-methylpyrido[2,3-d]pyrimidin-7(8H)-one], the Ki in assay [2] was 2.1 nM; in assay [3], 3.3 nM.

With `CC(=O)c1c(C)c2cnc(N[C@@H]3CCOC[C@H]3O)nc2n([C@H]2CCC[C@]2(C)O)c1=O` (mixture of isomers) [Example 7, 6-Acetyl-8-[(1S,2S)-2-hydroxy-2-methylcyclopentyl]-2-{[(3S,4R)-3-hydroxytetrahydro-2H-pyran-4-yl]amino}-5-methylpyrido[2,3-d]pyrimidin-7(8H)-one and 6-Acetyl-8-[(1R,2R)-2-hydroxy-2-methylcyclopentyl]-2-{[(3S,4R)-3-hydroxytetrahydro-2H-pyran-4-yl]amino}-5-methylpyrido[2,3-d]pyrimidin-7(8H)-one], the Ki in assay [2] stood at 7.2 nM; in assay [3], 7.7 nM.

Consider `CC(=O)c1c(C)c2cnc(N[C@@H]3CCOC[C@H]3O)nc2n([C@H]2CCNC2)c1=O` [Example 18, 6-Acetyl-2-{[(3S,4R)-3-hydroxytetrahydro-2H-pyran-4-yl]amino}-5-methyl-8-[(3S)-pyrrolidin-3-yl]pyrido[2,3-d]pyrimidin-7(8H)-one], for which the Ki amounted to 9.6 nM in assay [2] and 34 nM in assay [3].

With `CC(=O)c1c(C)c2cnc(N[C@@H]3CCOC[C@H]3O)cc2n(C2CCC(O)C2)c1=O` (single isomer, unassigned) [Example 15], the Ki in assay [2] was 3.8 nM; in assay [3], 7.7 nM.

Take `CC(=O)c1c(C)c2cnc(N[C@@H]3CCOC[C@H]3O)nc2n(C2CCC2)c1=O` [Example 1, 6-Acetyl-8-cyclobutyl-2-{[(3S,4R)-3-hydroxytetrahydro-2H-pyran-4-yl]amino}-5-methylpyrido[2,3-d]pyrimidin-7(8H)-one]: the Ki in assay [2] amounted to 1.8 nM; in assay [3], 2 nM.

On to `CC(=O)c1c(C)c2cnc(N[C@@H]3CCOC[C@H]3O)nc2n([C@H]2CC[C@H](N(C)C)CC2)c1=O` [Example 25], for which the results for the Ki in assay [2] and in assay [3] were 36 nM and 110 nM, respectively.

Consider `CC(=O)c1c(C)c2cnc(N[C@H]3CCOC[C@@H]3O)nc2n(C2CCCC2)c1=O` [Example 30, 6-acetyl-8-cyclopentyl-2-{[(3R,4S)-3-hydroxytetrahydro-2H-pyran-4-yl]amino}-5-methylpyrido[2,3-d]pyrimidin-7(8H)-one], for which the Ki in assay [2] is 430 nM; in assay [3], greater than 570 nM.

Regarding `COCCN1CC2(CC(n3c(=O)c(C(C)=O)c(C)c4cnc(N[C@@H]5CCOC[C@H]5O)nc43)C2)C1` [Example 28], the Ki in assay [2] worked out at 10 nM; in assay [3] it was 36 nM.

`CC[C@H]1CCC[C@H]1n1c(=O)c(C(C)=O)c(C)c2cnc(N[C@@H]3CCOC[C@H]3O)nc21` [Example 10, 6-Acetyl-8-[(1R,2S)-2-ethylcyclopentyl]-2-{[(3S,4R)-3-hydroxytetrahydro-2H-pyran-4-yl]amino}-5-methylpyrido[2,3-d]pyrimidin-7(8H)-one]: the Ki in assay [2] is 2.7 nM; in assay [3], 5 nM.

For the compound `CC(=O)c1c(C)c2cnc(N[C@@H]3CCOC[C@H]3O)nc2n([C@H]2CCOC2)c1=O` [Example 31], the Ki in assay [2] came to 27 nM; in assay [3] it was 29 nM.
